Measurements: ChEMBL document CHEMBL5131388, “Discovery of novel brain-penetrant GluN2B NMDAR antagonists via pharmacophore-merging strategy as anti-stroke therapeutic agents” (Eur J Med Chem, 2022)

Tests used:
[1] = Neuroprotective activity against NMDA-induced neurotoxicity in Sprague-Dawley rat hippocampal neurons assessed as increase in cell viability at 1 uM incubated for 18 hrs followed by NMDA addition and measured after 0.5 hrs by MTT assay; assay type: functional, Hippocampal neurone; conditions: time 18.5 hrs
[2] = Neuroprotective activity against NMDA-induced neurotoxicity in Sprague-Dawley rat hippocampal neurons assessed as increase in cell viability at 0.1 uM incubated for 18 hrs followed by NMDA addition and measured after 0.5 hrs by MTT assay; assay type: functional, Hippocampal neurone; conditions: time 18.5 hrs
[3] = Neuroprotective activity against NMDA-induced neurotoxicity in Sprague-Dawley rat hippocampal neurons assessed as increase in cell viability at 10 uM incubated for 18 hrs followed by NMDA addition and measured after 0.5 hrs by MTT assay; assay type: functional, Hippocampal neurone; conditions: time 18.5 hrs
[4] = molecular target: Glutamate NMDA receptor; GRIN1/GRIN2B (Homo sapiens) (UniProt Q05586+Q13224); experiment: Antagonist activity at GluN1/GluN2B NMDA receptor (unknown origin) transfected in HEK293 cells assessed as inhibition of glycine induced current response at 10 uM in presence of L-glutamate by patch-clamp method; assay type: cell-based; conditions: filed as antagonist
[5] = molecular target: Glutamate NMDA receptor; GRIN1/GRIN2A (Homo sapiens) (UniProt Q05586+Q12879); experiment: Antagonist activity at GluN1/GluN2A NMDA receptor (unknown origin) transfected in HEK293 cells assessed as inhibition of glycine induced current response at 10 uM in presence of L-glutamate by patch-clamp method; assay type: cell-based
[6] = molecular target: Ionotropic glutamate receptor NMDA 1/2C (Homo sapiens) (UniProt Q05586+Q14957); experiment: Antagonist activity at GluN1/GluN2C NMDA receptor (unknown origin) transfected in HEK293 cells assessed as inhibition of glycine induced current response at 10 uM in presence of L-glutamate by patch-clamp method; assay type: cell-based
[7] = molecular target: Ionotropic glutamate receptor NMDA 1/2D (Homo sapiens) (UniProt Q05586+O15399); experiment: Antagonist activity at GluN1/GluN2D NMDA receptor (unknown origin) transfected in HEK293 cells assessed as inhibition of glycine induced current response at 10 uM in presence of L-glutamate by patch-clamp method; assay type: cell-based
Rattus norvegicus [8] = experiment: Neuroprotective activity in Sprague-Dawley rat model of middle cerebral artery occlusion-induced ischemia-reperfusion injury assessed as decrease in cerebral infarction rate at 20 mg/kg, po measured 24 hrs post injury by TTC staining based histological analysis; assay type: functional; set-up: scale not given: the % may be the effect or the level left
Rattus norvegicus [9] = experiment: Neuroprotective activity in Sprague-Dawley rat model of middle cerebral artery occlusion-induced ischemia-reperfusion injury assessed as decrease in neurological score at 20 mg/kg, po measured 24 hrs post injury by TTC staining based histological analysis; assay type: functional
Glutamate NMDA receptor = experiment: Displacement of [3H] ifenprodil from Wistar rat glutamate NMDA receptor incubated for 2 hrs by scintillation counting method; assay type: protein-complex assay

Compound | Activity [1] | Activity [2] | Activity [3] | also measured
O=C1OC(CCCN2CCN(Cc3ccncc3)CC2)c2ccccc21 (stereo unspecified) | 66.35% | 57.55% | 75.54% | –
O=C1OC(CCCN2CCN(Cc3ccc(C(F)(F)F)cc3)CC2)c2ccccc21 (racemic) | – | – | – | inhibition [4]: 75.4%; inhibition [5]: 26.6%; inhibition [6]: 12%; inhibition [7]: 10.3%
O=C1OC(CCCN2CCCCC2)c2ccccc21 (stereo unspecified) | 70.2% | 63.96% | 77.85% | –
O=C1OC(CCCN2CCC(Cc3ccccc3)CC2)c2ccccc21 (stereo unspecified) | 78.13% | 49.13% | 79.12% | –
O=C1OC(CCCN2CCN(Cc3ccc(C(F)(F)F)cc3)CC2)c2ccccc21 (single isomer, unassigned; enantiomer B) [listing 1 of 2 here] | – | – | – | Activity ([1]; 1 µM): 81.02%; Activity ([2]; 0.1 µM): 65.86%; Activity ([3]; 10 µM): 81.82%
O=C1OC(CCCN2CCC(CO)CC2)c2ccccc21 (stereo unspecified) | 74.86% | 60.19% | 78.14% | –
O=C1OC(CCCN2CCN(Cc3ccc([N+](=O)[O-])cc3)CC2)c2ccccc21 (stereo unspecified) | 79.64% | 66.55% | 88.35% | Activity (Rattus norvegicus [8]): 14.53%; Activity (Rattus norvegicus [9]): 1.75; Ki (Glutamate NMDA receptor): 4.55 nM
CS(=O)(=O)c1ccc(CN2CCN(CCCC3OC(=O)c4ccccc43)CC2)cc1 (stereo unspecified) | 55.51% | 50.17% | 61.02% | –
O=C1OC(CCCN2CCCC2)c2ccccc21 (stereo unspecified) | 65.3% | 56.53% | 73.16% | –
O=C1OC(CCCN2CCN(Cc3ccc(Br)cc3)CC2)c2ccccc21 (stereo unspecified) | 45.56% | 46.12% | 46.13% | –
CN(C)CCCC1OC(=O)c2ccccc21 (stereo unspecified) | 77.37% | 48.37% | 78.18% | –
O=C1OC(CCCN2CCN(Cc3cccnc3)CC2)c2ccccc21 (stereo unspecified) | 55.95% | 51.84% | 63.33% | –
O=C1OC(CCCN2CCN(Cc3ccc(Cl)cc3)CC2)c2ccccc21 (stereo unspecified) | 54.83% | 49.49% | 60.33% | –
Cc1ccc(CN2CCN(CCCC3OC(=O)c4ccccc43)CC2)cc1 (stereo unspecified) | 64.44% | 51.66% | 68.38% | –
O=C1OC(CCCN2CCN(Cc3ccc4ccccc4n3)CC2)c2ccccc21 (stereo unspecified) | 55.95% | 49.69% | 62.96% | –
O=C1OC(CCCN2CCN(Cc3ccc(F)cc3)CC2)c2ccccc21 (stereo unspecified) | 64.11% | 52.58% | 72.2% | –
O=C1OC(CCCN2CCN(Cc3ccccn3)CC2)c2ccccc21 (stereo unspecified) | 67.89% | 57.46% | 74.65% | –
O=C1OC(CCN2CCCC2)c2ccccc21 (stereo unspecified) | 66.34% | 57.21% | 70.66% | –

Compound | Activity [1] | Activity [2] | Activity [3] | also measured
O=C1OC(CCCN2CCN(Cc3cccc(Cl)c3)CC2)c2ccccc21 (stereo unspecified) | 55.95% | 49.69% | 62.96% | –
O=C1OC(CCCN2CCN(Cc3ccc(C(F)(F)F)cc3)CC2)c2ccccc21 (single isomer, unassigned; enantiomer B) [listing 2 of 2 here] | – | – | – | inhibition [4]: 81%; inhibition [5]: 25.9%; inhibition [6]: 16.2%; inhibition [7]: 20.3%
O=C1OC(CCCN2CCN(Cc3ccc(C(F)(F)F)cc3)CC2)c2ccccc21 (single isomer, unassigned; enantiomer A) [listing 1 of 2 here] | – | – | – | inhibition [4]: 71.9%; inhibition [5]: 23.4%; inhibition [6]: 14.9%; inhibition [7]: 16.7%
O=C1OC(CCCN2CCN(Cc3ccccc3)CC2)c2ccccc21 (stereo unspecified) | 79.85% | 67.64% | 81.91% | Ki (Glutamate NMDA receptor): 13.6 nM
O=C1OC(CCCN2CCN(Cc3cccc([N+](=O)[O-])c3)CC2)c2ccccc21 (stereo unspecified) | 69.03% | 53.23% | 73.28% | –
N#Cc1ccc(CN2CCN(CCCC3OC(=O)c4ccccc43)CC2)cc1 (stereo unspecified) | 54.83% | 49.49% | 60.33% | –
CN(C)CCC1OC(=O)c2ccccc21 (stereo unspecified) | 71.66% | 56.09% | 73.56% | –
O=C1OC(CCCN2CCc3sccc3C2)c2ccccc21 (stereo unspecified) | 61.1% | 49.39% | 66.52% | –
O=C1OC(CCCN2CCN(Cc3ccc(F)c(F)c3)CC2)c2ccccc21 (stereo unspecified) | 65.4% | 57.3% | 75.45% | –
O=C1OC(CCN2CCc3sccc3C2)c2ccccc21 (stereo unspecified) | 58.81% | 45.88% | 66.05% | –
O=C1OC(CCCN2CCN(Cc3ccc(C(F)(F)F)cc3)CC2)c2ccccc21 (single isomer, unassigned; enantiomer A) [listing 2 of 2 here] | – | – | – | Activity ([1]; 1 µM): 71.91%; Activity ([2]; 0.1 µM): 62.81%; Activity ([3]; 10 µM): 81.02%
CC(C(O)c1ccc(O)cc1)N1CCC(Cc2ccccc2)CC1 (stereo unspecified) [IFENPRODIL] | 76.98% | 65.93% | 85.83% | Activity (Rattus norvegicus [8]): 14.35%; Activity (Rattus norvegicus [9]): 1.75; inhibition [4]: 135%; inhibition [5]: 13.1%; inhibition [6]: 28.8%; inhibition [7]: 18.1%
Cc1cccc(CN2CCN(CCCC3OC(=O)c4ccccc43)CC2)c1 (stereo unspecified) | 61.15% | 53.08% | 67.43% | –
O=C1OC(CCCN2CCC(O)CC2)c2ccccc21 (stereo unspecified) | 67.72% | 58.83% | 77.13% | –
CCCCC1OC(=O)c2ccccc21 (stereo not drawn) [RAC-3-N-BUTYLPHTHALIDE] | 57.94% | 55.71% | 73.45% | Activity (Rattus norvegicus [8]): 18.81%; Activity (Rattus norvegicus [9]): 2.13; Ki (Glutamate NMDA receptor): 14.8 nM
COc1ccc(CN2CCN(CCCC3OC(=O)c4ccccc43)CC2)cc1OC (stereo unspecified) | 47.16% | 46.58% | 48.44% | –
O=C1OC(CCCN2CCOCC2)c2ccccc21 (stereo unspecified) | 65.19% | 57.15% | 76.22% | –
